# Source: patent US6861409B2, “Growth hormone secretagogues” (Zentaris AG, priority 2000, dated 2005)
# Tests used:
# plasma GH concentrations = assay: Growth hormone releasing activity in the infant rat (plasma GH by RIA); type: in vivo, Sprague Dawley rats; settings: Table 1 test series; male 10-day-old rats; 300 μg/kg subcutaneously; plasma 15 min later
# Procedure: Male 10-day-old Sprague Dawley rats, about 25 g body weight were used.
# One hour before the experiments, pups were separated from their respective dams and were divided randomly into groups of eight each.
# Pups were acutely challenged subcutaneously with 100 μl of solvent (DMSO, final dilution 1:300 in physiological saline), hexarelin (Tyr-Ala-His-D-Mrp-Ala-Trp-D-Phe-Lys-NH2, used as a reference drug), or new compounds (300 μg/kg) and killed by decapitation 15 min later.
# Trunk blood was collected and centrifuged immediately. Plasma samples were stored at −20° C. until assayed for the determination of plasma GH concentrations.
# Growth hormone concentrations in plasma were measured by RIA using materials provided by the National Institute of Diabetes, Digestive and Kidney Diseases (NIDDK) of the National Institute of Health U.S.A.
# Values were expressed in terms of the NIDDK-rat-GH-RP-2 standard (potency 21 U/mg) as ng/ml of plasma.
# The minimum detectable value of rat GH was about 1.0 ng/ml, and intraassay variability was about 6%.
# Concentration GH = assay: Time dependence of the oral activity in the dog (plasma GH); type: in vivo, dog (beagles); set-up: AUC (Area under the curve) of GH concentration: unit not given here; settings: 1 mg/kg per os
# Procedure: Furthermore the time dependence of the oral activity in the dog (1 mg/kg; per os) was estimated for example 1 (H-Aib-D-Trp-D-gTrp-CHO). Well-trained beagles of either sex, >10 year, 10-15 kg by weight, were used. Animals were fed normal dry food with water ad libitum and were on a 12 h-light/12 h-dark regimen with on at 7.00. The compound was administered orally to the dogs which had fasted since 16.00 of the preceding day. Blood samples were taken 20 min before administration, at administration and 15, 30, 60, 90, 120 and 180 min after administration.
structure (smiles),measurement,setting,value
"CC(C)(N)C(=O)N[C@H](Cc1c[nH]c2ccccc12)C(=O)N[C@H](Cc1c[nH]c2ccccc12)NC=O [Example 1, H-Aib-D-Trp-D-gTrp-CHO]",GH,plasma GH concentrations,158.8 ± 39.4 ng/mL
same,AUC (Area under the curve) of GH concentration,Concentration GH; MEAN VALUE of 6 dogs,675.35
same,Concentration GH,"Concentration GH; MEAN VALUE of 6 dogs, t 0 min (at administration)",1.79 ng/mL
same,Concentration GH,"Concentration GH; MEAN VALUE of 6 dogs, t 15 min after administration",5.32 ng/mL
same,Concentration GH,"Concentration GH; MEAN VALUE of 6 dogs, t 30 min after administration",5.5 ng/mL
same,Concentration GH,"Concentration GH; MEAN VALUE of 6 dogs, t 60 min after administration",3.52 ng/mL
same,Concentration GH,"Concentration GH; MEAN VALUE of 6 dogs, t 90 min after administration",3.59 ng/mL
same,Concentration GH,"Concentration GH; MEAN VALUE of 6 dogs, t 120 min after administration",3.42 ng/mL
same,Concentration GH,"Concentration GH; MEAN VALUE of 6 dogs, t 180 min after administration",3.04 ng/mL
same,Concentration GH,"Concentration GH; MEAN VALUE of 6 dogs, t −20 min (before administration)",2.07 ng/mL
same,AUC (Area under the curve) of GH concentration,Concentration GH; dog DAKOTA,328.53
same,Concentration GH,"Concentration GH; dog DAKOTA, t 0 min (at administration)",0.35 ng/mL
same,Concentration GH,"Concentration GH; dog DAKOTA, t 15 min after administration",2.11 ng/mL
same,Concentration GH,"Concentration GH; dog DAKOTA, t 30 min after administration",0.54 ng/mL
same,Concentration GH,"Concentration GH; dog DAKOTA, t 60 min after administration",0.17 ng/mL
same,Concentration GH,"Concentration GH; dog DAKOTA, t 90 min after administration",0.4 ng/mL
same,Concentration GH,"Concentration GH; dog DAKOTA, t 120 min after administration",3.58 ng/mL
same,Concentration GH,"Concentration GH; dog DAKOTA, t 180 min after administration",3.46 ng/mL
same,Concentration GH,"Concentration GH; dog DAKOTA, t −20 min (before administration)",0.48 ng/mL
same,AUC (Area under the curve) of GH concentration,Concentration GH; dog FORREST LEE,888.91
same,Concentration GH,"Concentration GH; dog FORREST LEE, t 0 min (at administration)",2.01 ng/mL
same,Concentration GH,"Concentration GH; dog FORREST LEE, t 15 min after administration",6.38 ng/mL
same,Concentration GH,"Concentration GH; dog FORREST LEE, t 30 min after administration",8.48 ng/mL
same,Concentration GH,"Concentration GH; dog FORREST LEE, t 60 min after administration",4.41 ng/mL
same,Concentration GH,"Concentration GH; dog FORREST LEE, t 90 min after administration",6.42 ng/mL
same,Concentration GH,"Concentration GH; dog FORREST LEE, t 120 min after administration",3.71 ng/mL
same,Concentration GH,"Concentration GH; dog FORREST LEE, t 180 min after administration",3.18 ng/mL
same,Concentration GH,"Concentration GH; dog FORREST LEE, t −20 min (before administration)",1.43 ng/mL
same,AUC (Area under the curve) of GH concentration,Concentration GH; dog JORMA,658.38
same,Concentration GH,"Concentration GH; dog JORMA, t 0 min (at administration)",2.75 ng/mL
same,Concentration GH,"Concentration GH; dog JORMA, t 15 min after administration",8.91 ng/mL
same,Concentration GH,"Concentration GH; dog JORMA, t 30 min after administration",6.85 ng/mL
same,Concentration GH,"Concentration GH; dog JORMA, t 60 min after administration",2.65 ng/mL
same,Concentration GH,"Concentration GH; dog JORMA, t 90 min after administration",2.47 ng/mL
same,Concentration GH,"Concentration GH; dog JORMA, t 120 min after administration",2.48 ng/mL
same,Concentration GH,"Concentration GH; dog JORMA, t 180 min after administration",2.82 ng/mL
same,Concentration GH,"Concentration GH; dog JORMA, t −20 min (before administration)",3.58 ng/mL
same,AUC (Area under the curve) of GH concentration,Concentration GH; dog MARKUS,944.26
same,Concentration GH,"Concentration GH; dog MARKUS, t 0 min (at administration)",2.55 ng/mL
same,Concentration GH,"Concentration GH; dog MARKUS, t 15 min after administration",6.11 ng/mL
same,Concentration GH,"Concentration GH; dog MARKUS, t 30 min after administration",6.9 ng/mL
same,Concentration GH,"Concentration GH; dog MARKUS, t 60 min after administration",6.51 ng/mL
same,Concentration GH,"Concentration GH; dog MARKUS, t 90 min after administration",5.18 ng/mL
same,Concentration GH,"Concentration GH; dog MARKUS, t 120 min after administration",4.54 ng/mL
same,Concentration GH,"Concentration GH; dog MARKUS, t 180 min after administration",4.12 ng/mL
same,Concentration GH,"Concentration GH; dog MARKUS, t −20 min (before administration)",2.45 ng/mL
same,AUC (Area under the curve) of GH concentration,Concentration GH; dog RAZ DEGAN,510.64
same,Concentration GH,"Concentration GH; dog RAZ DEGAN, t 0 min (at administration)",1.64 ng/mL
same,Concentration GH,"Concentration GH; dog RAZ DEGAN, t 15 min after administration",3.58 ng/mL
same,Concentration GH,"Concentration GH; dog RAZ DEGAN, t 30 min after administration",6.37 ng/mL
same,Concentration GH,"Concentration GH; dog RAZ DEGAN, t 60 min after administration",3.02 ng/mL
same,Concentration GH,"Concentration GH; dog RAZ DEGAN, t 90 min after administration",2.61 ng/mL
same,Concentration GH,"Concentration GH; dog RAZ DEGAN, t 120 min after administration",1.94 ng/mL
same,Concentration GH,"Concentration GH; dog RAZ DEGAN, t 180 min after administration",1.49 ng/mL
same,Concentration GH,"Concentration GH; dog RAZ DEGAN, t −20 min (before administration)",2.14 ng/mL
same,AUC (Area under the curve) of GH concentration,Concentration GH; dog TAYLOR,721.34
same,Concentration GH,"Concentration GH; dog TAYLOR, t 0 min (at administration)",1.41 ng/mL
same,Concentration GH,"Concentration GH; dog TAYLOR, t 15 min after administration",4.8 ng/mL
same,Concentration GH,"Concentration GH; dog TAYLOR, t 30 min after administration",3.89 ng/mL
same,Concentration GH,"Concentration GH; dog TAYLOR, t 60 min after administration",4.34 ng/mL
same,Concentration GH,"Concentration GH; dog TAYLOR, t 90 min after administration",4.43 ng/mL
same,Concentration GH,"Concentration GH; dog TAYLOR, t 120 min after administration",4.28 ng/mL
same,Concentration GH,"Concentration GH; dog TAYLOR, t 180 min after administration",3.18 ng/mL
same,Concentration GH,"Concentration GH; dog TAYLOR, t −20 min (before administration)",2.32 ng/mL
